Data on three compounds can be found in patent US8735584B2 (Merck Patent GmbH, priority 2008, dated 2014).

What all share (type): biochemical
For one experiment, the target named is T1, ABL (Homo sapiens, UniProt P00519).
T1 construct: purchased Caliper Life Sciences
Nature of the experiment: Desktop Profiler kinase panel, ABL. Conditions: 10 micromolar concentration of the compound; read-out: Percent Inhibition ABL. The protocol: (§1) The Aurora assays described here are performed on two Caliper Life Sciences systems: the LC3000 and the Desktop Profiler. These provide data on enzyme activity via measurement of the relative amounts of phosphorylated or unphosphorylated fluorescently labelled substrate peptide at the end of an enzymatic reaction. These different states of peptide are resolved by applying a potential difference across the sample. The presence of the charged phosphate group on the product (as opposed to the substrate) causes a different peptide mobility between the two peptides. This is visualized by excitation of the fluorescent label on the substrate and product peptides and represented as peaks within the analysis software.
(§2) The Desktop Profiler utilizes the same principle as the LC3000 for calculating percentage conversion of a substrate to product. Caliper Life Sciences provides proprietary flash frozen pre-made 384 well plates containing selected kinases. Each column in the 384 well plate contains a particular selected kinase. A second plate, the ‘substrate plate’ contains a mix of fluorescently labeled peptide substrate and ATP. These are arranged in columns so that transfer for substrate plate to enzyme plate provides the correct enzyme with the correct substrate/ATP concentration. Compounds are added to a thawed enzyme plate in the desired format, in single concentrations. Reactions are initiated by transfer of the substrate/ATP mix from the substrate plate. The enzyme plate is incubated for 90 mins at 25 C. The reaction is stopped by addition of 70 ul of Stop Buffer (100 mM HEPES pH 7.5, 0.015% Brij-35, 10 mM EDTA (Sigma, E7889)).
(§3) Reading of the plate in the Profiler is identical to the LC3000, and the ratio between substrate and product peaks provides the activity of the enzyme in that well. This is best represented by a plate heat map which colors each well by percent inhibition as compared to positive and negative controls (no inhibitors and no ATP respectively).
(§4) In the following Tables 3a-4-b, which show the results of the desktop profiler measurements, “+” means 50-70% inhibition, “++” means 70-90% inhibition, and “+++” means >90% inhibition. The enzymes tested for profiling were ABL, AKT1, AKT2, AurA, CHK1, CHK2, CK1d, Erk1, Erk2, FYN, GSK3b, INSR, LCK, LYN, MAPKAPK2, MET, MSK1, p38a, PKA, PKCz, PKD2, PRAK, RSK1 and SRC.

Another experiment concerns the target T2, AurA (Homo sapiens, UniProt O14965).
T2 construct: purchased Caliper Life Sciences
T2 sequence (O14965 1-403): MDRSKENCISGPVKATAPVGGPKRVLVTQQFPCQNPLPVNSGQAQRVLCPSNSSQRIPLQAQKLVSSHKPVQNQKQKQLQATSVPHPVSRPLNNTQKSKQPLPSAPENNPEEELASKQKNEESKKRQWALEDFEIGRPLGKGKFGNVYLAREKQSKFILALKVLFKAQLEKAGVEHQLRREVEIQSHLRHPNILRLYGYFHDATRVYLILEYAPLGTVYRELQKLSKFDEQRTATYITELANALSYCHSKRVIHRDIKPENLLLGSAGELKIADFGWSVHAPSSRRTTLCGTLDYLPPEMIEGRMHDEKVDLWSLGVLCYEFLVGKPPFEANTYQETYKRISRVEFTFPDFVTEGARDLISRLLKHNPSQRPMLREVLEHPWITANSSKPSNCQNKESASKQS
Nature of the experiment: Desktop Profiler kinase panel, AurA. Conditions: 10 micromolar concentration of the compound; read-out: Percent Inhibition AurA. In a few lines:
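Pre-made kinase plates with fluorescent peptide substrate and ATP, compounds at single concentrations, 90 min at 25 °C, stopped with EDTA. Substrate and phosphopeptide were separated by mobility shift, and percent inhibition was taken against no-inhibitor and no-ATP controls and binned as 50-70%, 70-90% or >90%.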

Another experiment addresses T3, CHK2 (Homo sapiens, UniProt O96017).
T3 construct: purchased Caliper Life Sciences
Kind of experiment: Desktop Profiler kinase panel, CHK2. Conditions: 10 micromolar concentration of the compound; read-out: Percent Inhibition CHK2. As to the method: as §1, §2, §3, §4

A further experiment deals with T4, CK1d (Homo sapiens, UniProt P48730).
T4 construct: purchased Caliper Life Sciences
Kind of experiment: Desktop Profiler kinase panel, CK1d. Conditions: 10 micromolar concentration of the compound; read-out: Percent Inhibition CK1d. As to the method: as §1, §2, §3, §4

Another experiment concerns the target T5, FYN (Homo sapiens, UniProt P06241).
T5 construct: purchased Caliper Life Sciences
Nature of the experiment: Desktop Profiler kinase panel, FYN. Conditions: 10 micromolar concentration of the compound; read-out: Percent Inhibition FYN. The protocol: as §1, §2, §3, §4

For the next experiment, the target named is T6, LYN (Homo sapiens, UniProt P07948).
T6 construct: purchased Caliper Life Sciences
Nature of the experiment: Desktop Profiler kinase panel, LYN. Conditions: 10 micromolar concentration of the compound; read-out: Percent Inhibition LYN. As to the method: as §1, §2, §3, §4

The next experiment deals with T7, MSK1 (Homo sapiens, UniProt O75582).
T7 construct: purchased Caliper Life Sciences
Nature of the experiment: Desktop Profiler kinase panel, MSK1. Conditions: 10 micromolar concentration of the compound; read-out: Percent Inhibition MSK1. As to the method:
as §1, §2
Reading of the plate in the Profiler is identical to the LC3000, and the ratio between substrate and product peaks provides the activity of the enzyme in that well. This is best represented by a plate heat map which colors each well by percent inhibition as compared to positive and negative controls (no inhibitors and no ATP respectively). […]

The target in another experiment is T8, PKD2 (Homo sapiens, UniProt Q9BZL6).
T8 construct: purchased Caliper Life Sciences
T8 sequence (Q9BZL6 1-878): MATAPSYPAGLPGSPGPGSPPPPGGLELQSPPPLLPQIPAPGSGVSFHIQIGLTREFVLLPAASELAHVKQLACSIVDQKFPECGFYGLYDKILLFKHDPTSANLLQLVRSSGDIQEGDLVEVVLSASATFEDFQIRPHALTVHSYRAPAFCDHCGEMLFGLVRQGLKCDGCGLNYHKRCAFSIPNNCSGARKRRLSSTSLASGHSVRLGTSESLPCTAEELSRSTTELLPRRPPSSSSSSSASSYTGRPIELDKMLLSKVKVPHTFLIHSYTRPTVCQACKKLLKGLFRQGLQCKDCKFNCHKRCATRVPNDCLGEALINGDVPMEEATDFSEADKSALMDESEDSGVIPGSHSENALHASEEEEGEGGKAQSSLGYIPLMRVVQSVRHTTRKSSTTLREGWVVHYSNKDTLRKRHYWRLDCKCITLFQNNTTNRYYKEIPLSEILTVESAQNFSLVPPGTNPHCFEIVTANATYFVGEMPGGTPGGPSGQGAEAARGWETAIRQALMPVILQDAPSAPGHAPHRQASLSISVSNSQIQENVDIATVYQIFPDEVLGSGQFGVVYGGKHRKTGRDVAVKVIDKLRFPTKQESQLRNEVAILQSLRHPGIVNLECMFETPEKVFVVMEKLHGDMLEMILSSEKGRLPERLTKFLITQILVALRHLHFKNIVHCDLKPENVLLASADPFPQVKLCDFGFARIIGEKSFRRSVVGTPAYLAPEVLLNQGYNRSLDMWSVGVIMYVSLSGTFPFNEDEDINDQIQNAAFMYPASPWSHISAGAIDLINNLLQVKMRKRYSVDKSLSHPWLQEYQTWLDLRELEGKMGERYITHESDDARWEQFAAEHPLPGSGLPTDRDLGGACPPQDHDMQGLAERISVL
Nature of the experiment: Desktop Profiler kinase panel, PKD2. Conditions: 10 micromolar concentration of the compound; read-out: Percent Inhibition PKD2. As to the method:
as §1, §2, §3, §4

In a further experiment the target is T9, RSK1 (Homo sapiens, UniProt Q15418).
T9 construct: purchased Caliper Life Sciences
Kind of experiment: Desktop Profiler kinase panel, RSK1. Conditions: 10 micromolar concentration of the compound; read-out: Percent Inhibition RSK1. The protocol: as §1, §2, §3, §4

Another experiment addresses T10, SRC (Homo sapiens, UniProt P12931).
T10 construct: purchased Caliper Life Sciences
Nature of the experiment: Desktop Profiler kinase panel, SRC. Conditions: 10 micromolar concentration of the compound; read-out: Percent Inhibition SRC. As to the method: as §1, §2, §3, §4

T5 sequence (P06241 whole entry, species assumed): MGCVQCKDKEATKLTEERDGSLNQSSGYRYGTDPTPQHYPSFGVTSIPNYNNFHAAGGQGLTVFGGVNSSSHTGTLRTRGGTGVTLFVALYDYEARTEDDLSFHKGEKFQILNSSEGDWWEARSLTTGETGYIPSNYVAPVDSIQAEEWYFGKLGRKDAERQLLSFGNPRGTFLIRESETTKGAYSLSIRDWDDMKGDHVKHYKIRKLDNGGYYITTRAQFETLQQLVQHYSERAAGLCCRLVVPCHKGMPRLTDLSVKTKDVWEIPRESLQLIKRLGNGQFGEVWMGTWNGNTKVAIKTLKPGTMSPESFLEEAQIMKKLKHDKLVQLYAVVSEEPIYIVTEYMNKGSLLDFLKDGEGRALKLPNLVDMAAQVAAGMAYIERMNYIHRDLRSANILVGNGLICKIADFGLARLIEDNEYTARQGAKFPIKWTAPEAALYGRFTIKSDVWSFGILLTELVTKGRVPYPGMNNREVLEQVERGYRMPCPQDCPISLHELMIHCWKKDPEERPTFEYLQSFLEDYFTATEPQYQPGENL
T6 sequence (P07948 whole entry, species assumed): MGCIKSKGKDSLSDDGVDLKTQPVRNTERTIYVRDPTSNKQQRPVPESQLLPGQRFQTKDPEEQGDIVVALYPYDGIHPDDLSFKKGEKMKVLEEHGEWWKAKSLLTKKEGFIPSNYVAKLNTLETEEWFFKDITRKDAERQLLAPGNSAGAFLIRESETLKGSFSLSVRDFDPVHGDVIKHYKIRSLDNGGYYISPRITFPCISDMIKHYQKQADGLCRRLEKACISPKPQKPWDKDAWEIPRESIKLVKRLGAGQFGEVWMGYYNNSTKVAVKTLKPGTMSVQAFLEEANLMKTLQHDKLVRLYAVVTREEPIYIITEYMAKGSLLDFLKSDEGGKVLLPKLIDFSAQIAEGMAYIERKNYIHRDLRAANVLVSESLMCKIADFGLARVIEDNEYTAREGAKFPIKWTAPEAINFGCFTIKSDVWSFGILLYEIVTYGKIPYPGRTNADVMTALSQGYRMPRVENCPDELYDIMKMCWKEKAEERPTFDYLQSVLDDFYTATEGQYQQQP
T4 sequence (P48730 whole entry): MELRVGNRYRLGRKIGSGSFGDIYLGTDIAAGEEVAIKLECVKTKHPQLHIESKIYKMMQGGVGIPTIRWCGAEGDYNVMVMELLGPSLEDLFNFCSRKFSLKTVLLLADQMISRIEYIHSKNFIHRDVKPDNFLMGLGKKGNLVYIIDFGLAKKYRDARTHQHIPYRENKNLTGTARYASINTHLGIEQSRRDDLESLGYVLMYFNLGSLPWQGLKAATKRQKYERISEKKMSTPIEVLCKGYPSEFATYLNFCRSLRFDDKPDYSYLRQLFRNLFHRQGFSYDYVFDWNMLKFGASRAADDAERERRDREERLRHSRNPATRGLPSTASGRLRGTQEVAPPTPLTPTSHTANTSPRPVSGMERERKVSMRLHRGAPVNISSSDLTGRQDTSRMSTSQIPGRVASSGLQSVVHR
T1 sequence (P00519 whole entry, species assumed): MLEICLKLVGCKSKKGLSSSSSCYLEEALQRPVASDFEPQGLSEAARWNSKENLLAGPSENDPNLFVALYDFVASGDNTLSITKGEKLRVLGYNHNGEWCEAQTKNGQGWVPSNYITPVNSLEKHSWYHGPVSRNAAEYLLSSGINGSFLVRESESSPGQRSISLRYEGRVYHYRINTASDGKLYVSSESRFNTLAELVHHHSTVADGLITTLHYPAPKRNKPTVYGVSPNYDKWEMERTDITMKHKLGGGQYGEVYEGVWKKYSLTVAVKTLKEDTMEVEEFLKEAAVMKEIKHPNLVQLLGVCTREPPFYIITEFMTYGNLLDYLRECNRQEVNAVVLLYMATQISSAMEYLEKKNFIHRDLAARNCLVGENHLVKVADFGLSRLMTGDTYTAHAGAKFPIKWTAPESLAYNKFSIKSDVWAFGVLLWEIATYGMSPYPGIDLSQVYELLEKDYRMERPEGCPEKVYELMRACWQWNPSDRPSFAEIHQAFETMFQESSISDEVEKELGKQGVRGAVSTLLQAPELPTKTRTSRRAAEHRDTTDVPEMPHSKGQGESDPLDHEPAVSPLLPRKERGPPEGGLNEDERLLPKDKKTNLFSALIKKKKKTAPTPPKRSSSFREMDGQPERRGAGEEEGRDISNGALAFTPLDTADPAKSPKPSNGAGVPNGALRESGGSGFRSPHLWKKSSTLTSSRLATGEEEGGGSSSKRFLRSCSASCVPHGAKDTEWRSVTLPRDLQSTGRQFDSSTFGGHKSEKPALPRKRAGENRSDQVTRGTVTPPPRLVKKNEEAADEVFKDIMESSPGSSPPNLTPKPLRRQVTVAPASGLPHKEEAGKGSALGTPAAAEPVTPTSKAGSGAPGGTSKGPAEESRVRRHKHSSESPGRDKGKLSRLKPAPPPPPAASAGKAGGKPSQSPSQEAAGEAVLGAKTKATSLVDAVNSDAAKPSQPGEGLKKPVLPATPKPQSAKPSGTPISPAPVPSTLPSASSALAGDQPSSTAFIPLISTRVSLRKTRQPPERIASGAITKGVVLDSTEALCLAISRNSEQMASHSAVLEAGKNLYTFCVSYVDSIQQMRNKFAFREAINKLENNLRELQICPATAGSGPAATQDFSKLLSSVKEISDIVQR
T7 sequence (O75582 whole entry, species assumed): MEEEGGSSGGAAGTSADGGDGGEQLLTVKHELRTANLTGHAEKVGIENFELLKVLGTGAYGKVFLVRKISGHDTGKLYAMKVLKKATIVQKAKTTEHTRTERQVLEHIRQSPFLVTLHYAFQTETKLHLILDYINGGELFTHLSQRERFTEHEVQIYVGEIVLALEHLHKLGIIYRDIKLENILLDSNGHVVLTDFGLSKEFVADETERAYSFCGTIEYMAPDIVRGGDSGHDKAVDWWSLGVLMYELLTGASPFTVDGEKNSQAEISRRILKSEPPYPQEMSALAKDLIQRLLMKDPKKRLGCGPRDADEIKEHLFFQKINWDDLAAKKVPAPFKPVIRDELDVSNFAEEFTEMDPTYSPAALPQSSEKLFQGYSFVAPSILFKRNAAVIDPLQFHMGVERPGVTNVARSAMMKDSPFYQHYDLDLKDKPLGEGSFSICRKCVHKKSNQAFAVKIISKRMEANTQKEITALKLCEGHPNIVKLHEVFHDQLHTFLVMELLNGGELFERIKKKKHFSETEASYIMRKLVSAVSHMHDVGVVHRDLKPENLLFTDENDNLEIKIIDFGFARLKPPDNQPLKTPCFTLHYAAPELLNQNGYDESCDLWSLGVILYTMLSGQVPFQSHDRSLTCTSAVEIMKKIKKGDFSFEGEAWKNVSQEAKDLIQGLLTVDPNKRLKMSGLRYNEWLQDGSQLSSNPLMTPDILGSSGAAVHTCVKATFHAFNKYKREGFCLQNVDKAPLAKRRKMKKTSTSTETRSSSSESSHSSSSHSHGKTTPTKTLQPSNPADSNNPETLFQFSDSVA
T3 sequence (O96017 whole entry, species assumed): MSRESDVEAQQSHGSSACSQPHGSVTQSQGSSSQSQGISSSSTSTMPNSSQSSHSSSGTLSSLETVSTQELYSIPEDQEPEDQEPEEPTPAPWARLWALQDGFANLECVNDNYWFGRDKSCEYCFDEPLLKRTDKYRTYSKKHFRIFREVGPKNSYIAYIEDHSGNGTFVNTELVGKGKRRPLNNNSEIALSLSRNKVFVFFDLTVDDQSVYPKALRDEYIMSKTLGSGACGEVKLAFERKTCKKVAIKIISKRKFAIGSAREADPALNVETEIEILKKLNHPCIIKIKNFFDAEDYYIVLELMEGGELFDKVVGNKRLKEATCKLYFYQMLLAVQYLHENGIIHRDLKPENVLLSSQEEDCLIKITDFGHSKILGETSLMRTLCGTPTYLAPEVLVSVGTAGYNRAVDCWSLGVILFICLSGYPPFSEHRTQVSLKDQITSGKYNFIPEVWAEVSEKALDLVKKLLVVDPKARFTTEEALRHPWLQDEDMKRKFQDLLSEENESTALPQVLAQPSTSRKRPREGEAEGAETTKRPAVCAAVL
T10 sequence (P12931 whole entry, species assumed): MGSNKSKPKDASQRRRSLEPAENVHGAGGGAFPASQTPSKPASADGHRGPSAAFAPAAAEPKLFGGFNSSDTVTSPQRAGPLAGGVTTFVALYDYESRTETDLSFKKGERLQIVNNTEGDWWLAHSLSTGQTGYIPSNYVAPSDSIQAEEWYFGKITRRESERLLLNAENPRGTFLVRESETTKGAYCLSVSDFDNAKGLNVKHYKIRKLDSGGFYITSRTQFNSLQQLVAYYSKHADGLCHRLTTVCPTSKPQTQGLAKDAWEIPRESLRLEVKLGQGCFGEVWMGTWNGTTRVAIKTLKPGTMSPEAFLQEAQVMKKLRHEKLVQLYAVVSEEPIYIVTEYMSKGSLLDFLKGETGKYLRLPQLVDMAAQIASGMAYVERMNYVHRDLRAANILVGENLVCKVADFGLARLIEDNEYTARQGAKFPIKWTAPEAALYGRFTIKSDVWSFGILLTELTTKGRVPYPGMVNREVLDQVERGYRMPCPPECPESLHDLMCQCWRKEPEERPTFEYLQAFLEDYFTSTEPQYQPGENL

In the case of `NC(=O)c1ccc(Oc2ccc3c(=O)[nH]c4ncccc4c3c2)cc1` [Example 82], the inhibition at 10 µM on ABL was 70 to 90%; at AurA it was more than 90%; on CHK2, 50 to 70%; at CK1d, 50 to 70%; at FYN, more than 90%; at LYN, 70 to 90%. Besides, the inhibition at 10 µM at MSK1, on PKD2, at RSK1 and on SRC was 50 to 70% throughout.
Take `O=c1[nH]c2ncccc2c2cc(Nc3cccc(F)c3)ccc12` [Example 31, 9-(3-Fluoro-phenylamino)-5H-benzo[c][1,8]naphthyridin-6-one]: the inhibition at 10 µM is more than 90% on ABL; more than 90% on AurA; 50 to 70% at CHK2; 70 to 90% on CK1d; 70 to 90% on FYN; more than 90% at LYN. Moreover, the inhibition at 10 µM at MSK1 is 70 to 90%; at PKD2, more than 90%; on RSK1, 50 to 70%; at SRC, 70 to 90%.
In the case of `CC(=O)Nc1ccc(Oc2ccc3c(=O)[nH]c4ncccc4c3c2)cc1` [Example 81, N-[4-(6-Oxo-5,6-dihydro-benzo[c][1,8]naphthyridin-9-yloxy)-phenyl]-acetamide], the inhibition at 10 µM at ABL is more than 90%; on AurA it was more than 90%; at CHK2 it was 70 to 90%; on CK1d, 70 to 90%; at FYN, more than 90%; at LYN, more than 90%. Moreover, the inhibition at 10 µM at MSK1 was more than 90%; at PKD2 it was more than 90%; on RSK1, 70 to 90%; on SRC it was more than 90%.
